Measured values from patent US11560380B2, “Substituted naphthalene diimides and their use” (UCL Business Ltd, priority 2019, dated 2023).
Where two headings read alike, the source gives them in different places. Values belong to the compound of their own block, whether it stands above or below them.

Columns and labels:
MIA-PACA2 cells = experiment: MTS cell proliferation assay (CellTiter 96 AQueous One Solution), 96 hr; format: cell-based; conditions: Homo sapiens, MIA PaCa-2, 96 hr MTS assay
Description: The CellTiter 96® AQueous One Solution Cell Proliferation Assay ([…]) is a colorimetric method for determining the number of viable cells in proliferation or cytotoxicity assays. The CellTiter 96® AQueous One Solution Reagent contains a novel tetrazolium compound [3-(4,5-dimethylthiazol-2-yl)-5-(3-carboxymethoxyphenyl)-2-(4-sulfophenyl)-2H-tetrazolium, inner salt; MTS] and an electron coupling reagent (phenazine ethosulfate; PES). PES has enhanced chemical stability, which allows it to be combined with MTS to form a stable solution. The MTS tetrazolium compound (Owen's reagent) is bioreduced by cells into a colored formazan product that is soluble in tissue culture medium. Assays are performed by adding a small amount of the CellTiter 96@ AQueous One Solution Reagent directly to culture wells, incubating for 1-4 hours and then recording the absorbance at 490 nm with a 96-well plate reader. The quantity of formazan product as measured by absorbance at 490 nm is directly proportional to the number of living cells in culture. The kit was used as per the manufacturers' instructions. After 96-hour incubation with each example compound in MIA-PACA2 cells, the cell proliferation of each sample was measured using the MTS Cell Titre 96 Aqueous One Solution Cell Proliferation Assay (Promega Ltd). The percentage of inhibition was calculated against the mean of the DMSO treated controls samples.

VCaP = experiment: 72 hr XTT cell viability assay, VCaP; format: cell-based; conditions: Homo sapiens, read-out: IC50 cell growth inhibition
Description: (§1) The CyQUANT XTT Cell Viability Assay (Invitrogen) is a complete, optimized assay that generates a consistent colorimetric detection of viable mammalian cells. The assay kit consists of two reagents, XTT Reagent (2,3-bis-(2-methoxy-4-nitro-5-sulfophenyl)-2H-tetrazolium-5-carboxanilide) and Electron Coupling Reagent. XTT Reagent is used to assess cell viability as a function of cellular redox potential, and the electron coupling reagent improves the dynamic range of the assay. The kit was used as per the manufacturers' instructions.

DU145 = experiment: 72 hr XTT cell viability assay, DU145; format: cell-based; conditions: Homo sapiens, DU-145; DU145, 72 hr XTT; read-out: IC50 cell growth inhibition
Description: as §1

MIA-PACA2 tumours = experiment: In vivo xenograft efficacy study, MIA-PACA2 model; conditions: for tumours not showing complete regression, versus vehicle control: minority of tumours in the group; for complete regression in tumour volume at the end of the dosing period: 1 mg/kg IV, 28 days
Description: Mice aged 5-7 weeks weighing approximately 25-32 g were implanted for the study and purchased from Charles River. The pancreatic tumour cell implantation procedure involved MIA-PACA2 cells (1×10^7 in Matrigel) being implanted subcutaneously using a 22-gauge needle onto the rear flank of the mice. Parameters evaluated include: tumour size and animal bodyweight. Tumour volume was measured three times weekly and bodyweight at least 3 times weekly. Allocation to treatment groups was done randomly when tumours reached approximately 50 mm^3 for animals in the efficacy study. […] Each group comprised 8 animals. All protocols used in this study were approved by the appropriate Animal Welfare and Ethical Review Board, and all procedures were carried out under the guidelines of the UK Animal (Scientific Procedures) Act 1986.
The data shown is mean±SD n=8 up to day 23 and n=4 to the end of the study. […] The starting tumour volumes were […]. Example 1 was active in both of the dosage regimens examined, 1× weekly and 2× weekly, both at a 1 mg/kg dose. Both had ⅝ complete regression in tumour volume at the end of the dosing period.

22RV1 = experiment: 72 hr XTT cell viability assay, 22RV1; format: cell-based; conditions: Homo sapiens; 22RV1, 72 hr XTT; read-out: IC50 cell growth inhibition
Description: as §1

GQ = experiment: FRET melting with GQ; format: binding
BX-PC3 = experiment: 96 hr SRB cell growth inhibition, BX-PC3; format: cell-based; conditions: Homo sapiens, BXPC-3; BX-PC3, 96 hr SRB
LNCaP = experiment: 72 hr XTT cell viability assay, LNCaP; format: cell-based; conditions: Homo sapiens, read-out: IC50 cell growth inhibition
Description: as §1

MIA-PACA2^gemR = experiment: 96 hr SRB cell growth inhibition, MIA-PACA2 gemR; format: cell-based; conditions: Homo sapiens, MIA PaCa-2
PANC-1 = experiment: 96 hr SRB cell growth inhibition, PANC-1; format: cell-based; conditions: Homo sapiens; PANC-1, 96 hr SRB
[1] = Mouse microsomal stability; format: in vitro ADME; conditions: mouse microsomes; read-out: t1/2 mouse microsomal stability
[2] = In vitro blood/plasma partitioning; format: in vitro ADME; conditions: blood and plasma
PC-3 = experiment: 72 hr XTT cell viability assay, PC-3; format: cell-based; conditions: Homo sapiens; PC-3, 72 hr XTT; read-out: IC50 cell growth inhibition
Description: as §1

CAPAN-1 = experiment: 96 hr SRB cell growth inhibition, CAPAN-1; format: cell-based; conditions: Homo sapiens; CAPAN-1, 96 hr SRB
MIA-PACA2 = experiment: 96 hr SRB cell growth inhibition, MIA-PACA2; format: cell-based; conditions: for IC50: Homo sapiens, MIA PaCa-2, MIA-PACA2, 96 hr SRB
[3] = Aqueous solubility of salt; format: physicochemical; conditions: water; HCl/formate salt
[4] = Plasma protein binding in vitro; format: in vitro ADME
[5] = Stability in saline at 0° C.; format: physicochemical

Compound: O=C1c2cc(-c3ccc(CNC4CCCC4)cc3)c3c4c(cc(NCCN5CCCC5)c(c24)C(=O)N1CCCN1CCOCC1)C(=O)N(CCCN1CCOCC1)C3=O [Example 6, 4-(4-((cyclopentylamino)methyl)phenyl)-2,7-bis(3-morpholinopropyl)-9-((2-(pyrrolidin-1-yl)ethyl)amino)benzo[lmn][3,8]phenanthroline-1,3,6,8(2H,7H)-tetraone]
IC50 (MIA-PACA2 cells; read-out: ABS IC50): 0.102 nM
IC50 (MIA-PACA2 cells; read-out: Rel IC50): 0.099 nM

Compound: O=C1c2ccc3c4c(c(NCCN5CCCC5)cc(c24)C(=O)N1CCCN1CCOCC1)C(=O)N(CCCN1CCOCC1)C3=O [Example C1, reference compound]
IC50 (VCaP): 135 nM
IC50 (DU145): 113 nM
tumours not showing complete regression, versus vehicle control (MIA-PACA2 tumours): reductions in tumour growth, leading to consistently smaller volumes than in the vehicle control groups
IC50 (22RV1): 90 nM
FRET ΔTm, ° C. with GQ (GQ): 17.6 °C
IC50 (BX-PC3): 15.5 nM
IC50 (LNCaP): 394 nM
IC50 (MIA-PACA2^gemR): 14.9 nM
IC50 (PANC-1): 15.6 nM
half-life [1]: > 8 h
blood plasma ratio [2]: 10.9
IC50 (PC-3): 94 nM
IC50 (CAPAN-1): 26.5 nM
IC50 (MIA-PACA2): 13 nM
solubility [3]: > 5000 µg/mL
fraction unbound [4]: 0.65
Stability in saline at 0° C. [5]: >1 month

Compound: C[C@]12CC[C@H](O)CC1=CC[C@@H]1[C@@H]2CC[C@]2(C)C(c3cccnc3)=CC[C@@H]12 [Abiraterone]
IC50 (LNCaP): 3860 nM
IC50 (PC-3): 4820 nM

Compound: CN1CCN(Cc2ccc(-c3cc4c5c(c(NCCN6CCCC6)cc6c5c3C(=O)N(CCCN3CCOCC3)C6=O)C(=O)N(CCCN3CCOCC3)C4=O)cc2)CC1 [Example 8]
IC50 (MIA-PACA2 cells; read-out: ABS IC50): 0.277 nM
IC50 (MIA-PACA2 cells; read-out: Rel IC50): 0.174 nM

Compound: O=C1c2cc(-c3ccc(CN4CCCC4)cc3)c3c4c(cc(NCCN5CCCC5)c(c24)C(=O)N1CCCN1CCOCC1)C(=O)N(CCCN1CCOCC1)C3=O [Example 1, 2,7-bis(3-morpholinopropyl)-4-((2-(pyrrolidin-1-yl)ethyl)amino)-9-(4-(pyrrolidin-1-ylmethyl)phenyl)benzo[lmn][3,8]phenanthroline-1,3,6,8(2H,7H)-tetraone]
IC50 (VCaP): 68 nM
IC50 (DU145): 32 nM
complete regression in tumour volume at the end of the dosing period (MIA-PACA2 tumours; 1× weekly): ⅝
complete regression in tumour volume at the end of the dosing period (MIA-PACA2 tumours; 2× weekly): ⅝
tumour regrowth in complete regression cohorts (MIA-PACA2 tumours; 28 days post-dosing): no regrowth seen after 28 days post-dosing
tumour growth and tumour size (MIA-PACA2 tumours; MIA-PACA2 xenograft, 28 days IV administration, followed by 28 days measurement): inhibited the growth of the pancreatic tumour and reduced the tumour's size considerably more than the comparative compound C1 or the known anti-cancer drug, Gemcitabine
tolerability (MIA-PACA2 tumours; compound and dosing schedules, IV, mice): well-tolerated showing no sign of adverse effects
tumours not showing complete regression, versus vehicle control (MIA-PACA2 tumours): reductions in tumour growth, leading to consistently smaller volumes than in the vehicle control groups
IC50 (22RV1): 90 nM
FRET ΔTm, ° C. with GQ (GQ): 23.1 °C
IC50 (BX-PC3): 2.6 nM
IC50 (LNCaP): 247 nM
IC50 (MIA-PACA2^gemR): 3.8 nM
IC50 (MIA-PACA2 cells; read-out: ABS IC50): 0.056 nM
IC50 (MIA-PACA2 cells; read-out: Rel IC50): 0.035 nM
IC50 (PANC-1): 1.4 nM
half-life [1]: 4.47 h
blood plasma ratio [2]: 6.1
IC50 (PC-3): 3 nM
IC50 (CAPAN-1): 5.9 nM
IC50 (MIA-PACA2): 1.3 nM
greater cellular potency relative to C1 (MIA-PACA2; compared with C1): 10 fold
fraction unbound [4]: 0.339
Stability in saline at 0° C. [5]: >1 month

Compound: O=C1c2cc(-c3cccc(CN4CCCC4)c3)c3c4c(cc(NCCN5CCCC5)c(c24)C(=O)N1CCCN1CCOCC1)C(=O)N(CCCN1CCOCC1)C3=O [Example 3, 2,7-bis(3-morpholinopropyl)-4-((2-(pyrrolidin-1-yl)ethyl)amino)-9-(3-(pyrrolidin-1-ylmethyl)phenyl)benzo[lmn][3,8]phenanthroline-1,3,6,8(2H,7H)-tetraone]
IC50 (MIA-PACA2 cells; read-out: ABS IC50): 0.284 nM
IC50 (MIA-PACA2 cells; read-out: Rel IC50): 0.282 nM

More lines, in order of falling IC50 (MIA-PACA2 cells; read-out: ABS IC50), values ahead:

IC50 (MIA-PACA2 cells; read-out: ABS IC50): 0.292 nM
IC50 (MIA-PACA2 cells; read-out: Rel IC50): 0.188 nM
Compound: O=C1c2cc(-c3ccc(CN4CCOCC4)cc3)c3c4c(cc(NCCN5CCCC5)c(c24)C(=O)N1CCCN1CCOCC1)C(=O)N(CCCN1CCOCC1)C3=O [Example 2, 4-(4-(morpholinomethyl)phenyl)-2,7-bis(3-morpholinopropyl)-9-((2-(pyrrolidin-1-yl)ethyl)amino)benzo[lmn][3,8]phenanthroline-1,3,6,8(2H,7H)-tetraone]

IC50 (MIA-PACA2 cells; read-out: ABS IC50): 0.182 nM
IC50 (MIA-PACA2 cells; read-out: Rel IC50): 0.117 nM
Compound: O=C1c2cc(-c3ccc(CN4CCCCCC4)cc3)c3c4c(cc(NCCN5CCCC5)c(c24)C(=O)N1CCCN1CCOCC1)C(=O)N(CCCN1CCOCC1)C3=O [Example 7, 4-(4-(azepan-1-ylmethyl)phenyl)-2,7-bis(3-morpholinopropyl)-9-((2-(pyrrolidin-1-yl)ethyl)amino)benzo[lmn][3,8]phenanthroline-1,3,6,8(2H,7H)-tetraone]

IC50 (MIA-PACA2 cells; read-out: ABS IC50): 0.18 nM
IC50 (MIA-PACA2 cells; read-out: Rel IC50): 0.239 nM
Compound: CCN(CC)Cc1ccc(-c2cc3c4c(c(NCCN5CCCC5)cc5c4c2C(=O)N(CCCN2CCOCC2)C5=O)C(=O)N(CCCN2CCOCC2)C3=O)cc1 [Example 5, 4-(4-((diethylamino)methyl)phenyl)-2,7-bis(3-morpholinopropyl)-9-((2-(pyrrolidin-1-yl)ethyl)amino)benzo[lmn][3,8]phenanthroline-1,3,6,8(2H,7H)-tetraone]

IC50 (MIA-PACA2 cells; read-out: ABS IC50): 0.175 nM
IC50 (MIA-PACA2 cells; read-out: Rel IC50): 0.132 nM
Compound: O=C1c2cc(-c3ccc(CN4CCCCC4)cc3)c3c4c(cc(NCCN5CCCC5)c(c24)C(=O)N1CCCN1CCOCC1)C(=O)N(CCCN1CCOCC1)C3=O [Example 4, 2,7-bis(3-morpholinopropyl)-4-(4-(piperidin-1-ylmethyl)phenyl)-9-((2-(pyrrolidin-1-yl)ethyl)amino)benzo[lmn][3,8]phenanthroline-1,3,6,8(2H,7H)-tetraone]
